Compound in assay [1]: T1, O=c1[nH]cc(F)c(=O)[nH]1 [FLUOROURACIL]
The experiment in a line: surviving fraction relative to DMSO-only wells; higher = less growth inhibition. The conditions noted are these: exposure time: 5 days. Put shortly: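 At 250–500 cells per well in 384-well plates, log-phase tumour cell lines were seeded and, 24 hours on, exposed continuously for five days to inhibitors at 0.5, 1, 5, 10, 50, 100, 500 and 1000 nM. Viability readout was CellTiter-Glo luminescence, reported as surviving fraction normalised to the median of DMSO-only wells.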

Compound in the next assay: C=CCNC1=C2C[C@@H](C)C[C@H](OC)[C@H](O)[C@@H](C)/C=C(\C)[C@H](OC(N)=O)[C@@H](OC)/C=C\C=C(/C)C(=O)NC(=CC1=O)C2=O [17-AAG]
The experiment in a line: area under dose-response curve of surviving fraction (unscaled, Aref=0) (surviving fraction x log10(nM)); higher = more resistant. The following applies: exposure time: 5 days; dose range 0.5-1000 nM. The essentials: (§1)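 Tumour cell lines in 384-well plates were exposed to eight inhibitor concentrations, from 0.5 to 1000 nM, for five days, and viability was read by CellTiter-Glo luminescence in three screens per line. Signals were normalised to DMSO-only wells, and 3-parameter logistic regression in the drc R package fitted dose-response survival curves to the surviving fractions. Area under the curve is given as the unscaled activity area. That area is taken over log10 dose with Aref = 0.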

Compound in assay [2]: CCN(CC)CCCCNc1ncc2cc(-c3cc(OC)cc(OC)c3)c(NC(=O)NC(C)(C)C)nc2n1
The description is as above. The following applies: exposure time: 5 days; dose range 0.5-1000 nM. Put shortly:
as §1

Compound in another assay: CC[C@@H](C(=O)[C@@H](C)[C@@H](O)[C@H](C)[C@@H]1O[C@@H]([C@@H](CC)C(=O)O)CC[C@@H]1C)[C@H]1O[C@]2(C=C[C@@H](O)[C@]3(CC[C@@](C)([C@H]4CC[C@](O)(CC)[C@H](C)O4)O3)O2)[C@H](C)C[C@@H]1C [SALINOMYCIN]
Described as above. The conditions noted are these: exposure time: 5 days; dose range 0.5-1000 nM. The essentials: as §1

Compound in another assay: CN(C)CC[C@H](CSc1ccccc1)Nc1ccc(S(=O)(=O)NC(=O)c2ccc(N3CCN(Cc4ccccc4-c4ccc(Cl)cc4)CC3)cc2)cc1[N+](=O)[O-] [ABT-737]
The description is as above. The conditions noted are these: exposure time: 5 days; dose range 0.5-1000 nM. The essentials: as §1

Compound in another assay: CN1CC[C@H](c2c(O)cc(O)c3c(=O)cc(-c4ccccc4Cl)oc23)[C@H](O)C1 [FLAVOPIRIDOL]
The assay is described as above. The following applies: exposure time: 5 days; dose range 0.5-1000 nM. Put shortly:
as §1

Compound in another assay: COc1cc2c(cc1O)CC[C@@H]1[C@@H]2CC[C@]2(C)[C@@H](O)CC[C@@H]12 [2-METHOXYESTRADIOL]
The description is as above. The following applies: exposure time: 5 days; dose range 0.5-1000 nM. Put shortly:
as §1

Compound in another assay: COc1ccc(C2=N[C@@H](c3ccc(Cl)cc3)[C@@H](c3ccc(Cl)cc3)N2C(=O)N2CCNC(=O)C2)c(OC(C)C)c1 [NUTLIN3]
Described as above. The conditions noted are these: exposure time: 5 days; dose range 0.5-1000 nM. Put shortly: as §1

Compound in the next assay: CS(=O)(=O)CCNCc1ccc(-c2ccc3ncnc(Nc4ccc(OCc5cccc(F)c5)c(Cl)c4)c3c2)o1 [LAPATINIB]
The description is as above. The conditions noted are these: exposure time: 5 days; dose range 0.5-1000 nM. The essentials: as §1

Compound in a further assay: CS(=O)(=O)c1ccc(C(=O)Nc2ccc(Cl)c(-c3ccccn3)c2)c(Cl)c1 [VISMODEGIB]
The assay is described as above. The conditions noted are these: exposure time: 5 days; dose range 0.5-1000 nM. Put shortly:
as §1

Compound in a further assay: Nc1ncn([C@H]2C[C@H](O)[C@@H](CO)O2)c(=O)n1 [DECITABINE]
The assay is described as above. The following applies: exposure time: 5 days; dose range 0.5-1000 nM. Put shortly: as §1

Compound in assay [3]: T1, FLUOROURACIL
The assay is described as above. The conditions noted are these: exposure time: 5 days; dose range 0.5-1000 nM. The essentials:
as §1

Compound in a further assay: Oc1ccc(/C=C/c2cc(O)cc(O)c2)cc1 [RESVERATROL]
The assay is described as above. The following applies: exposure time: 5 days; dose range 0.5-1000 nM. The essentials: as §1

The results in this text go back to the supplement of paper PMC6045584.

± gives the standard deviation of the averaged measurements.

G292 BONE: the surviving fraction was 0.993 ± 0.028 in the assay with FLUOROURACIL [1] (0.5 nM); 0.965 ± 0.051 with FLUOROURACIL [1] (1 nM); 1.02 ± 0.037 in the assay with FLUOROURACIL [1] (5 nM); 1.01 ± 0.03 in the assay with FLUOROURACIL [1] (10 nM); 0.994 ± 0.051 with FLUOROURACIL [1] (50 nM); 0.939 ± 0.027 in the assay with FLUOROURACIL [1] (100 nM). In addition, the figures for the surviving fraction with FLUOROURACIL [1] (500 nM) and with FLUOROURACIL [1] (1000 nM) were 0.941 ± 0.017 and 0.759 ± 0.054, respectively. In addition, the “area under dose-response curve” value in the assay with 17-AAG worked out at 1.84; in [2], 2.16; with SALINOMYCIN, 2.65; with ABT-737, 3.45; with FLAVOPIRIDOL, 2.14; in the assay with 2-METHOXYESTRADIOL it was 2.87. In addition, the “area under dose-response curve” value with NUTLIN3 amounted to 3.34; with LAPATINIB, 3.3; with VISMODEGIB, 3.2; in the assay with DECITABINE it was 2.61; with FLUOROURACIL [3] it was 3.29; in the assay with RESVERATROL, 3.42.

Regarding HCC70 BREAST, the surviving fraction in the assay with FLUOROURACIL [1] (0.5 nM) was 1.06 ± 0.054; in the assay with FLUOROURACIL [1] (1 nM) it was 1.08 ± 0.12; in the assay with FLUOROURACIL [1] (5 nM), 1.14 ± 0.083; with FLUOROURACIL [1] (10 nM), 1.12 ± 0.028; with FLUOROURACIL [1] (50 nM), 1.04 ± 0.092; with FLUOROURACIL [1] (100 nM), 1.03 ± 0.06. The surviving fraction in the assay with FLUOROURACIL [1] (500 nM) amounted to 0.778 ± 0.047; in the assay with FLUOROURACIL [1] (1000 nM), 0.735 ± 0.053. Further, the “area under dose-response curve” value in the assay with 17-AAG came out at 1.53; in assay [2], 3.36; in the assay with SALINOMYCIN, 2.56; in the assay with ABT-737 it was 3.49; with FLAVOPIRIDOL, 2.16; in the assay with 2-METHOXYESTRADIOL, 3.06. For the same test system, the “area under dose-response curve” value in the assay with NUTLIN3 was found to be 3.49; with LAPATINIB, 3.58; with VISMODEGIB it was 3.57; in the assay with RESVERATROL, 3.59.

With HS57T BREAST, the surviving fraction stood at 1.02 ± 0.026 in the assay with FLUOROURACIL [1] (0.5 nM); 1.04 ± 0.086 with FLUOROURACIL [1] (1 nM); 1.07 ± 0.056 in the assay with FLUOROURACIL [1] (5 nM); 0.995 ± 0.044 with FLUOROURACIL [1] (10 nM); 0.972 ± 0.044 with FLUOROURACIL [1] (50 nM); 1 ± 0.041 in the assay with FLUOROURACIL [1] (100 nM). Also, the surviving fraction in the assay with FLUOROURACIL [1] (500 nM) stood at 0.926 ± 0.059; with FLUOROURACIL [1] (1000 nM) it was 0.734 ± 0.061.

On to HMT3552 BREAST, for which the surviving fraction stood at 0.951 ± 0.044 with FLUOROURACIL [1] (0.5 nM); 0.925 ± 0.085 in the assay with FLUOROURACIL [1] (1 nM); 0.976 ± 0.08 with FLUOROURACIL [1] (5 nM); 0.85 ± 0.048 in the assay with FLUOROURACIL [1] (10 nM); 1.01 ± 0.036 with FLUOROURACIL [1] (50 nM); 0.89 ± 0.02 in the assay with FLUOROURACIL [1] (100 nM). Besides, the values for the surviving fraction with FLUOROURACIL [1] (500 nM) and in the assay with FLUOROURACIL [1] (1000 nM) were 0.939 ± 0.1 and 0.536 ± 0.033, respectively. Moreover, the “area under dose-response curve” value in the assay with ABT-737 amounted to 3.5; with FLAVOPIRIDOL it was 1.86; in the assay with 2-METHOXYESTRADIOL it was 2.95; with LAPATINIB it was 3.24; in the assay with DECITABINE, 3.71; in the assay with FLUOROURACIL [3], 3.23. Moreover, in the assay with RESVERATROL, the “area under dose-response curve” value came to 3.64.

Take HS578T BREAST: the surviving fraction in the assay with FLUOROURACIL [1] (0.5 nM) turned out to be 0.839 ± 0.2; in the assay with FLUOROURACIL [1] (1 nM), 1.04 ± 0.043; in the assay with FLUOROURACIL [1] (5 nM), 0.904 ± 0.054; in the assay with FLUOROURACIL [1] (10 nM) it was 0.856 ± 0.1; in the assay with FLUOROURACIL [1] (50 nM), 0.902 ± 0.19; with FLUOROURACIL [1] (100 nM), 0.817 ± 0.15. In addition, the values for the surviving fraction with FLUOROURACIL [1] (500 nM) and with FLUOROURACIL [1] (1000 nM) were 0.793 ± 0.071 and 0.708 ± 0.041, respectively. For the same test system, the “area under dose-response curve” value with 17-AAG was 1.45; in assay [2], 3.03; with SALINOMYCIN, 2.87; with ABT-737, 3.8; in the assay with FLAVOPIRIDOL, 2.13; with 2-METHOXYESTRADIOL, 2.71. In addition, the “area under dose-response curve” value worked out at 3.34 with LAPATINIB; 3.11 in the assay with VISMODEGIB; 2.99 with DECITABINE; 2.85 in the assay with FLUOROURACIL [3]; 3.82 in the assay with RESVERATROL.

As to HCC38 BREAST, the surviving fraction is 1.01 ± 0.2 with FLUOROURACIL [1] (0.5 nM); 0.97 ± 0.11 with FLUOROURACIL [1] (1 nM); 1.02 ± 0.17 in the assay with FLUOROURACIL [1] (5 nM); 1.11 ± 0.14 with FLUOROURACIL [1] (10 nM); 0.8 ± 0.092 in the assay with FLUOROURACIL [1] (50 nM); 0.727 ± 0.14 in the assay with FLUOROURACIL [1] (100 nM). Also, the surviving fraction with FLUOROURACIL [1] (500 nM) was 0.689 ± 0.027; in the assay with FLUOROURACIL [1] (1000 nM), 0.644 ± 0.097. Moreover, the “area under dose-response curve” value in the assay with 17-AAG amounted to 0.903; with SALINOMYCIN it was 2.83; with FLAVOPIRIDOL, 2.36; with NUTLIN3 it was 4.18; with LAPATINIB, 3; in the assay with VISMODEGIB, 2.67. Further, the “area under dose-response curve” value stood at 2.64 with DECITABINE and 2.87 with FLUOROURACIL [3].

Consider HMLE3 BREAST, for which the surviving fraction was found to be 1.05 ± 0.097 with FLUOROURACIL [1] (0.5 nM); 1.11 ± 0.03 with FLUOROURACIL [1] (1 nM); 1.09 ± 0.15 with FLUOROURACIL [1] (5 nM); 1.13 ± 0.043 with FLUOROURACIL [1] (10 nM); 1.06 ± 0.091 in the assay with FLUOROURACIL [1] (50 nM); 0.955 ± 0.065 in the assay with FLUOROURACIL [1] (100 nM). For the same test system, the surviving fraction was found to be 0.838 ± 0.034 with FLUOROURACIL [1] (500 nM) and 0.702 ± 0.15 with FLUOROURACIL [1] (1000 nM). Further, the “area under dose-response curve” value came to 1.61 with 17-AAG; 2.61 in assay [2]; 2.7 in the assay with SALINOMYCIN; 3.75 with ABT-737; 2.14 with FLAVOPIRIDOL; 3.23 with 2-METHOXYESTRADIOL. Moreover, the “area under dose-response curve” value in the assay with VISMODEGIB was found to be 3.06; in the assay with DECITABINE, 2.98; with RESVERATROL it was 3.42.

Take CCK81 LARGE INTESTINE: the surviving fraction came to 0.849 ± 0.12 with FLUOROURACIL [1] (0.5 nM); 0.804 ± 0.081 with FLUOROURACIL [1] (1 nM); 0.764 ± 0.086 with FLUOROURACIL [1] (5 nM); 0.835 ± 0.13 with FLUOROURACIL [1] (10 nM); 0.851 ± 0.079 with FLUOROURACIL [1] (50 nM); 0.751 ± 0.075 with FLUOROURACIL [1] (100 nM). Moreover, the figures for the surviving fraction in the assay with FLUOROURACIL [1] (500 nM) and in the assay with FLUOROURACIL [1] (1000 nM) were 0.775 ± 0.042 and 0.609 ± 0.084, respectively. Besides, the “area under dose-response curve” value with ABT-737 stood at 2.64; with FLAVOPIRIDOL, 1.69; in the assay with 2-METHOXYESTRADIOL, 2.32; with LAPATINIB, 1.95; with DECITABINE, 1.69; in the assay with FLUOROURACIL [3], 2.58. Besides, the “area under dose-response curve” value in the assay with RESVERATROL stood at 2.47.
